# Tests used:
# [1] = target: T1, human TLR8 (Homo sapiens, UniProt Q9NR97); assay: Example 15: HEK-Blue hTLR8 cells / QUANTI-Blue SEAP assay; type: cell-based; settings: from RAW-Blue and HEK-Blue hTLR8 results
# T1 construct: host or cells: HEK-Blue hTLR8 cells
# T1 sequence (Q9NR97 27-1041): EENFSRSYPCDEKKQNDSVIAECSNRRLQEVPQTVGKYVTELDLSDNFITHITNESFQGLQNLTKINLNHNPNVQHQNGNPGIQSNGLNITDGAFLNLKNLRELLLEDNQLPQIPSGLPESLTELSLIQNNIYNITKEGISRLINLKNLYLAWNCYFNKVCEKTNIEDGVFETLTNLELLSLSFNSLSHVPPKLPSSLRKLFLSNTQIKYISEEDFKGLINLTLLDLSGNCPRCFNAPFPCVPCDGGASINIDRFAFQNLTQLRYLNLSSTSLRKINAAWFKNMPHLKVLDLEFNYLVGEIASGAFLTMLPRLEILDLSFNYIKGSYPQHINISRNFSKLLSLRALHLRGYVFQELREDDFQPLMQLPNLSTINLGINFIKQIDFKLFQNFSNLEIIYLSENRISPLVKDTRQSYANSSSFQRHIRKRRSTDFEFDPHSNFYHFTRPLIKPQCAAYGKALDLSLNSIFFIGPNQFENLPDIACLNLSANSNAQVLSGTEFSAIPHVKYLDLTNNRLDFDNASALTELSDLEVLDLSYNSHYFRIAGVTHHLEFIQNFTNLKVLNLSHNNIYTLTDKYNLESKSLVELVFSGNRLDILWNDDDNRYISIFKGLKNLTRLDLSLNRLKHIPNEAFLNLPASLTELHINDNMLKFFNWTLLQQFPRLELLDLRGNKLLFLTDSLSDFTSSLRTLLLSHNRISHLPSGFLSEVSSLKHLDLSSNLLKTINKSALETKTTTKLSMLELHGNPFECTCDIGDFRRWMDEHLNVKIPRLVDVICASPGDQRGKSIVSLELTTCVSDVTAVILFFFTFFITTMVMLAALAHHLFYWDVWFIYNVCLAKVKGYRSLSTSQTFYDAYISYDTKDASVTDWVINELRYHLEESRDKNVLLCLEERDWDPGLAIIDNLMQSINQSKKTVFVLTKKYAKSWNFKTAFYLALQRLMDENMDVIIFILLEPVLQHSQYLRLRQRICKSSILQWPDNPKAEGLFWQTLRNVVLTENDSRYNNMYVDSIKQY
# Excerpt: In another experiment, in vitro biological activity of SLNP-TR12 specificity to TLR7 was confirmed using the following experiment. […] It is noted that despite Raw-Blue cells that express a variety of TLRs including TLR7 and TLR8, the HEK-Blue™ hTLR8 cells dominantly express the human TLR8 gene and an NF-κB/AP-1-inducible SEAP (secreted embryonic alkaline phosphatase) reporter gene. Thus, SEAP levels produced upon TLR8 stimulation can be readily determined by performing the assay in HEK-Blue™ Detection.
# Concurrently, HEK-Blue TLR8 were incubated with SLNP-TR5 or SLNP-TR12 at different concentrations. After 24 h incubation with the compounds, TLR stimulation was assessed by measuring the levels of SEAP optimal density (OD) using QUANTI-Blue™ assay. ODs were normalized to the control (untreated) group (See, FIG. 23(B)).
# [2] = target: T2, TLR7 (Mus musculus, UniProt P58681); assay: Example 13: RAW-Blue cells / QUANTI-Blue SEAP reporter assay; type: cell-based; settings: 24 h incubation
# T2 construct: Raw-Blue cells that express a variety of TLRs including TLR7 and TLR8; host or cells: RAW-Blue cells
# T2 sequence (P58681 27-1050): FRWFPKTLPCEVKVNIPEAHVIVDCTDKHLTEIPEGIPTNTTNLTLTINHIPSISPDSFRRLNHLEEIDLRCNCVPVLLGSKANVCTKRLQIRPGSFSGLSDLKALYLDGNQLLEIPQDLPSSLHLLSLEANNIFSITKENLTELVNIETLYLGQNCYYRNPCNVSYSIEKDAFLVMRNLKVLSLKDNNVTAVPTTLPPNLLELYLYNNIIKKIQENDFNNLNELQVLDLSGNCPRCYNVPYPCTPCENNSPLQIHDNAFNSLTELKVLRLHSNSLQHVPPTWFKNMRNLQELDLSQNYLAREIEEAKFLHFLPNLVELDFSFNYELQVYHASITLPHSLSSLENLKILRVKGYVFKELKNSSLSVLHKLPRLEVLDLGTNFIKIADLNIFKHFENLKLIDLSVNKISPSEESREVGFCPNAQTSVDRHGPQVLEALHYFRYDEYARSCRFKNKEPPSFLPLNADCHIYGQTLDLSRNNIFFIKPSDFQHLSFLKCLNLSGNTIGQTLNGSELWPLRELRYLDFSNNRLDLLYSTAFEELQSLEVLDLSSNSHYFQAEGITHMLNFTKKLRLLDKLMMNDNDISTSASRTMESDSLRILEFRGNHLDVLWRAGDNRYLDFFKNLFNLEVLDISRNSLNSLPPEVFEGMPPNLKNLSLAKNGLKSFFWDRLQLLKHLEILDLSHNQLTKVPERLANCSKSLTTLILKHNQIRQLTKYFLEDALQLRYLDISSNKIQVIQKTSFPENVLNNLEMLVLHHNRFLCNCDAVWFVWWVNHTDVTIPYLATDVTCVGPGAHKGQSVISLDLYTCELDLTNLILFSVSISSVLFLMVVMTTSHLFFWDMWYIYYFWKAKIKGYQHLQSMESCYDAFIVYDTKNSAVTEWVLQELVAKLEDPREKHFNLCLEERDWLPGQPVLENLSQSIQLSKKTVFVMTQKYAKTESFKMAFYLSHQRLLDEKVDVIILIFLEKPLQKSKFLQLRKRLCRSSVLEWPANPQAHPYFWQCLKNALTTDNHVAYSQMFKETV
# Procedure: By way of background, RAW-Blue™ Cells and QUANTI-Blue™ (InvivoGen, San Diego, CA) assay were utilized. Raw Blue™ express […] Toll-like receptors (“TLRs”) and an NF-κB/AP-1-inducible SEAP (secreted embryonic alkaline phosphatase) reporter gene. Stimulation of these cells with TR12 leads to NF-κB activation through TLR7 which can be measured by detection of SEAP levels. Briefly, RAW-Blue™ Cells were incubated with TR12-SA (TR12-Stearic Acid) and SLNP-TR12 (TR12 Stearic Acid in Solid Lipid Nanoparticle from) at different concentration. After 24 h incubation with the compounds, TLR stimulation was assessed by measuring the levels of SEAP optimal density (OD) using QUANTI-Blue™ assay. ODs were normalized to the control (untreated) group. […] (See, FIG. 21).
Compound,specificity TLR7 versus TLR8 [1],TLR stimulation (SEAP OD normalized to untreated control) [2]
"CCCCCCCCCCCCCCCCCC(=O)NCCCCOn1c(CCCC)nc2c(N)nc3ccccc3c21 [TR5, Telratolimod]",stimulates both TLR7 and TLR8,–
CCCCCCCCCCCCCCCCCC(=O)OCOC(=O)N1CCN(c2ccc(Cn3c(=O)[nH]c4c(N)nc(NCCCC)nc43)cn2)CC1 [TR12 prodrug],–,stimulation of TLR-7
